Test results as given in patent US6896895B2, “Carotenoid esters, carotenoid-enriched feeds, and methods of pigmenting foods and foodstuffs” (DSM IP Assets B.V., priority 2000, dated 2005).

System: egg yolk
Test: Egg yolk colour: reflectance colorimetry and Roche Yolk Colour Fan
Assay type: in vivo, laying hens (ISA Brown)
Set-up: key to Chroma C*ab Value: CIE L*a*b* chroma C* value; key to Color Fan Value / Color Fan Value Value: visual score on Roche Yolk Colour Fan (RYCF, 1993 version); key to Color Fan Value, Pigmentation: − = off color; + = good color
Conditions: laying hens; for Color Fan Value % of Controls / Chroma C*ab % of Controls / Color Hue h*ab % of Controls / Chroma C*ab Value / Color Fan Value / Color Fan Value, Pigmentation / Color Hue h*ab Value / Color Fan Value Value: egg yolk; for quality in terms of deposition rate and color intensity (chroma C*a*b*) in the egg yolk: compared to the control
Procedure, shortened: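 ISA Brown laying hens, depleted at least 28 days on low-carotenoid basal diet (<2 mg xanthophylls/kg), fed pigment-supplemented mash ad libitum for three weeks. Pooled yolks of three to six eggs scored with Roche Yolk Colour Fan and measured by reflectance colorimetry (D65, 8°) as CIE L*a*b*, h*, C*; values average four yolk pools.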

[1] = trial H-25/99, 5.0 mg/kg feed, Table 9
[2] = trial H-12/99, 1.0 mg/kg feed, Table 9
[3] = trial H-12/99, 2.0 mg/kg feed, Table 9
[4] = trial H-12/99, 4.0 mg/kg feed, Table 9
[5] = trial H-12/99, 8.0 mg/kg feed, Table 9
[6] = trial H-19/98, 4.0 mg/kg feed, Table 9
[7] = trial H-25/98, 5.0 mg/kg feed, Table 9

CC(C=CC=C(C)C=CC1=C(C)CCCC1(C)C)=CC=CC=C(C)C=CC=C(C)C(=O)OC(C)(C)C [compound (18), tert. butyl beta-apo-8′-carotenoate]
Color Fan Value % of Controls (average over doses, Table 7): 87% | Chroma C*ab % of Controls (average over doses, Table 9): 101% | Color Fan Value % of Controls (average over doses, Table 9): 87% | Color Hue h*ab % of Controls (average over doses, Table 9): 85% | Chroma C*ab % of Controls (trial H-25/99, 5.0 mg/kg feed): 101% | Chroma C*ab Value (trial H-25/99, 5.0 mg/kg feed): 52 | Color Fan Value (trial H-25/99, 5.0 mg/kg feed): 7 | Color Fan Value % of Controls (trial H-25/99, 5.0 mg/kg feed): 87% | Color Fan Value, Pigmentation (trial H-25/99, 5.0 mg/kg feed): + | Color Hue h*ab % of Controls (trial H-25/99, 5.0 mg/kg feed): 85% | Color Hue h*ab Value (trial H-25/99, 5.0 mg/kg feed): 74 | Color Fan Value % of Controls [1]: 87% | Color Fan Value Value [1]: 7 | Color Fan Value, Pigmentation [1]: + | quality in terms of deposition rate and color intensity (chroma C*a*b*) in the egg yolk: comparable quality

CC1=C(/C=C/C(C)=C/C=C/C(C)=C/C=C/C=C(C)/C=C/C=C(\C)C(=O)OC(C)C)C(C)(C)CCC1 [compound (17), isopropyl beta-apo-8′-carotenoate]
Color Fan Value % of Controls (average over doses, Table 7): 105% | Chroma C*ab % of Controls (average over doses, Table 9): 98% | Color Fan Value % of Controls (average over doses, Table 9): 105% | Color Hue h*ab % of Controls (average over doses, Table 9): 101% | Chroma C*ab % of Controls (trial H-12/99, 1.0 mg/kg feed): 98% | Chroma C*ab Value (trial H-12/99, 1.0 mg/kg feed): 39 | Color Fan Value (trial H-12/99, 1.0 mg/kg feed): 3 | Color Fan Value % of Controls (trial H-12/99, 1.0 mg/kg feed): 66% | Color Hue h*ab % of Controls (trial H-12/99, 1.0 mg/kg feed): 101% | Color Hue h*ab Value (trial H-12/99, 1.0 mg/kg feed): 95 | Color Fan Value % of Controls [2]: 66% | Color Fan Value Value [2]: 3 | Chroma C*ab % of Controls (trial H-12/99, 2.0 mg/kg feed): 100% | Chroma C*ab Value (trial H-12/99, 2.0 mg/kg feed): 45 | Color Fan Value (trial H-12/99, 2.0 mg/kg feed): 6 | Color Fan Value % of Controls (trial H-12/99, 2.0 mg/kg feed): 104% | Color Fan Value, Pigmentation (trial H-12/99, 2.0 mg/kg feed): + | Color Hue h*ab % of Controls (trial H-12/99, 2.0 mg/kg feed): 101% | Color Hue h*ab Value (trial H-12/99, 2.0 mg/kg feed): 93 | Color Fan Value % of Controls [3]: 104% | Color Fan Value Value [3]: 6 | Color Fan Value, Pigmentation [3]: + | Chroma C*ab % of Controls (trial H-12/99, 4.0 mg/kg feed): 98% | Chroma C*ab Value (trial H-12/99, 4.0 mg/kg feed): 51 | Color Fan Value (trial H-12/99, 4.0 mg/kg feed): 6 | Color Fan Value % of Controls (trial H-12/99, 4.0 mg/kg feed): 97% | Color Fan Value, Pigmentation (trial H-12/99, 4.0 mg/kg feed): + | Color Hue h*ab % of Controls (trial H-12/99, 4.0 mg/kg feed): 102% | Color Hue h*ab Value (trial H-12/99, 4.0 mg/kg feed): 90 | Color Fan Value % of Controls [4]: 97% | Color Fan Value Value [4]: 6 | Color Fan Value, Pigmentation [4]: + | Chroma C*ab % of Controls (trial H-12/99, 8.0 mg/kg feed): 96% | Chroma C*ab Value (trial H-12/99, 8.0 mg/kg feed): 54 | Color Fan Value (trial H-12/99, 8.0 mg/kg feed): 9 | Color Fan Value % of Controls (trial H-12/99, 8.0 mg/kg feed): 156% | Color Fan Value, Pigmentation (trial H-12/99, 8.0 mg/kg feed): + | Color Hue h*ab % of Controls (trial H-12/99, 8.0 mg/kg feed): 100% | Color Hue h*ab Value (trial H-12/99, 8.0 mg/kg feed): 85 | Color Fan Value % of Controls [5]: 156% | Color Fan Value Value [5]: 9 | Color Fan Value, Pigmentation [5]: + | Chroma C*ab % of Controls (trial H-19/98, 4.0 mg/kg feed): 97% | Chroma C*ab Value (trial H-19/98, 4.0 mg/kg feed): 51 | Color Fan Value (trial H-19/98, 4.0 mg/kg feed): 5 | Color Fan Value % of Controls (trial H-19/98, 4.0 mg/kg feed): 79% | Color Fan Value, Pigmentation (trial H-19/98, 4.0 mg/kg feed): + | Color Hue h*ab % of Controls (trial H-19/98, 4.0 mg/kg feed): 106% | Color Hue h*ab Value (trial H-19/98, 4.0 mg/kg feed): 89 | Color Fan Value % of Controls [6]: 79% | Color Fan Value Value [6]: 5 | Color Fan Value, Pigmentation [6]: + | Chroma C*ab % of Controls (trial H-25/98, 5.0 mg/kg feed): 99% | Chroma C*ab Value (trial H-25/98, 5.0 mg/kg feed): 52 | Color Hue h*ab % of Controls (trial H-25/98, 5.0 mg/kg feed): 98% | Color Hue h*ab Value (trial H-25/98, 5.0 mg/kg feed): 86 | Color Fan Value % of Controls [7]: 130% | Color Fan Value Value [7]: 9 | Color Fan Value (trial H-25/99, 5.0 mg/kg feed): 9 | Color Fan Value % of Controls (trial H-25/99, 5.0 mg/kg feed): 130% | quality in terms of deposition rate and color intensity (chroma C*a*b*) in the egg yolk: comparable quality

CCCC(C)OC(=O)C(C)=CC=CC(C)=CC=CC=C(C)C=CC=C(C)C=CC1=C(C)CCCC1(C)C (stereo not drawn) [compound (19), 2-pentyl beta-apo-8′-carotenoate]
Color Fan Value % of Controls (average over doses, Table 7): 87% | Chroma C*ab % of Controls (average over doses, Table 9): 113% | Color Fan Value % of Controls (average over doses, Table 9): 87% | Color Hue h*ab % of Controls (average over doses, Table 9): 96% | Chroma C*ab % of Controls (trial H-25/99, 5.0 mg/kg feed): 113% | Chroma C*ab Value (trial H-25/99, 5.0 mg/kg feed): 58 | Color Fan Value (trial H-25/99, 5.0 mg/kg feed): 7 | Color Fan Value % of Controls (trial H-25/99, 5.0 mg/kg feed): 87% | Color Fan Value, Pigmentation (trial H-25/99, 5.0 mg/kg feed): + | Color Hue h*ab % of Controls (trial H-25/99, 5.0 mg/kg feed): 96% | Color Hue h*ab Value (trial H-25/99, 5.0 mg/kg feed): 82 | Color Fan Value % of Controls [1]: 87% | Color Fan Value Value [1]: 7 | Color Fan Value, Pigmentation [1]: + | quality in terms of deposition rate and color intensity (chroma C*a*b*) in the egg yolk: comparable quality
